In US20260021103A1, “IKZF2 AND CK1-ALPHA DEGRADING COMPOUNDS AND USES THEREOF” (President and Fellows of Harvard College, priority 2022, published 2026):

Legend:
[1] = test system: endometrioid ovarian cancer cell line A2780; assay: 5-day MTT assay in A2780 cells; format: cell-based; settings: A2780, 5-day MTT assay
Protocol: (§1) Viability Assay: 10,000 cells (e.g., MOLM-13 cells, MLL-AF9 leukemic cells or normal BM cells) were plated onto flat-bottom 96-well plates in media with increasing concentration of compound up to […]. […] For measuring viability, Cell-Titer Glo kit (Promega) or MTT kit was used following manufacturer's instructions. For Cell-Titer Glo assay, cells were cooled to room temperature for 20-30 min, 100 μL of the cultured cells were transferred to opaque-white bottom 96-well plates and mixed with 100 μL of Cell-Titer Glo reagent. The mixture was incubated for 15 min at room temperature and read using a Synergy H1 Hybrid reader (BioTek) for luminescence. Data was normalized as percentage viability and graphed by non-linear regression curves in Graph Pad PRISM 7.0.

DLBCL cell line OCI-LY3 = assay: 5-day MTT assay in OCI-LY3 cells; format: cell-based; settings: OCI-LY3, 5-day MTT assay
Protocol: as §1

[2] = test system: small cell lung cancer cell line NCI-H1048; assay: 5-day MTT assay in NCI-H1048 cells; format: cell-based; settings: NCI-H1048, 5-day MTT assay
Protocol: as §1

[3] = In vitro solubility in DMSO; format: physicochemical; settings: for solubility: DMSO, organic solvent or mixture
MOLM-13 cells = assay: Cell viability assay in MOLM-13 cells; format: cell-based; settings: Homo sapiens, read-out: IC50 (cytotoxicity)
Protocol: Viability Assay: 10,000 cells (e.g., MOLM-13 cells, MLL-AF9 leukemic cells or normal BM cells) were plated onto flat-bottom 96-well plates in media with increasing concentration of compound up to 100 µM. Cells were cultured for 72 h at 37° C. in a 5% CO2 incubator. For measuring viability, Cell-Titer Glo kit (Promega) or MTT kit was used following manufacturer's instructions. For Cell-Titer Glo assay, cells were cooled to room temperature for 20-30 min, 100 μL of the cultured cells were transferred to opaque-white bottom 96-well plates and mixed with 100 μL of Cell-Titer Glo reagent. The mixture was incubated for 15 min at room temperature and read using a Synergy H1 Hybrid reader (BioTek) for luminescence. Data was normalized as percentage viability and graphed by non-linear regression curves in Graph Pad PRISM 7.0.

CK1α and/or IKZF2 = assay: Panel of reporter cell lines (HEK293T cells expressing protein tagged with eGFP), substrate scope; format: cell-based; settings: 100 nM or 1 μM
CK1α = biological target: T1, CK1α (Homo sapiens, UniProt P48729+Q96SW2); assay: Flow cytometry for measuring degradation, HEK293T GFP-POI reporter cells (CK1α); format: cell-based; settings: for CK1α % degradation at 100 nM / CK1α % degradation at 1 μM: 24 h, HEK293T GFP reporter; for Dmax: CK1, read-out: Dmax CK1a (%); for Dmax / DC50: Table 3; for DC50: read-out: DC50 CK1a
T1 construct: expressed in transfected cells; host or cells: HEK293T (lentiviral transduction, puromycin selection, FACS sorting)
T1 sequence (P48729 whole entry): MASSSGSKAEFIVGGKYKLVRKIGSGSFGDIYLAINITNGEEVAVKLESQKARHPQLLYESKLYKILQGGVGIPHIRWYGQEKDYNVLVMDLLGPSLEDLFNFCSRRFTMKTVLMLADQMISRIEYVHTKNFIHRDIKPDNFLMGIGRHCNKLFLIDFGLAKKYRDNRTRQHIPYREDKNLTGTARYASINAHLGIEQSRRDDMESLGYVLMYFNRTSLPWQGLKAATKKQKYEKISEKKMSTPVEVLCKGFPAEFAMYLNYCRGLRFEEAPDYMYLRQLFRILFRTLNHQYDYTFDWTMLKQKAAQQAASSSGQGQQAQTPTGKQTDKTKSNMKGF
T1 sequence (Q96SW2 whole entry): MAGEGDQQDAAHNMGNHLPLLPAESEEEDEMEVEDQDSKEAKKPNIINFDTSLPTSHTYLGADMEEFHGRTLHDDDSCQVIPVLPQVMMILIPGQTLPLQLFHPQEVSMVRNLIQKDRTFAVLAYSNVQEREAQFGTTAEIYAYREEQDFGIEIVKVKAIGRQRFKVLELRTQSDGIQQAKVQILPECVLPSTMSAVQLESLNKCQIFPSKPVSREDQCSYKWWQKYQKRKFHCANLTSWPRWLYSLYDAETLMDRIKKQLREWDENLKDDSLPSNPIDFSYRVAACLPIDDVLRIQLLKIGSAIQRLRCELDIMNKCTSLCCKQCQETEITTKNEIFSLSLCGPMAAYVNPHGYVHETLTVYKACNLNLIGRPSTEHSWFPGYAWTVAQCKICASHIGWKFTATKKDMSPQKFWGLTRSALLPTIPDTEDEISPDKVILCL
T1 sequence (Q16531 whole entry partner): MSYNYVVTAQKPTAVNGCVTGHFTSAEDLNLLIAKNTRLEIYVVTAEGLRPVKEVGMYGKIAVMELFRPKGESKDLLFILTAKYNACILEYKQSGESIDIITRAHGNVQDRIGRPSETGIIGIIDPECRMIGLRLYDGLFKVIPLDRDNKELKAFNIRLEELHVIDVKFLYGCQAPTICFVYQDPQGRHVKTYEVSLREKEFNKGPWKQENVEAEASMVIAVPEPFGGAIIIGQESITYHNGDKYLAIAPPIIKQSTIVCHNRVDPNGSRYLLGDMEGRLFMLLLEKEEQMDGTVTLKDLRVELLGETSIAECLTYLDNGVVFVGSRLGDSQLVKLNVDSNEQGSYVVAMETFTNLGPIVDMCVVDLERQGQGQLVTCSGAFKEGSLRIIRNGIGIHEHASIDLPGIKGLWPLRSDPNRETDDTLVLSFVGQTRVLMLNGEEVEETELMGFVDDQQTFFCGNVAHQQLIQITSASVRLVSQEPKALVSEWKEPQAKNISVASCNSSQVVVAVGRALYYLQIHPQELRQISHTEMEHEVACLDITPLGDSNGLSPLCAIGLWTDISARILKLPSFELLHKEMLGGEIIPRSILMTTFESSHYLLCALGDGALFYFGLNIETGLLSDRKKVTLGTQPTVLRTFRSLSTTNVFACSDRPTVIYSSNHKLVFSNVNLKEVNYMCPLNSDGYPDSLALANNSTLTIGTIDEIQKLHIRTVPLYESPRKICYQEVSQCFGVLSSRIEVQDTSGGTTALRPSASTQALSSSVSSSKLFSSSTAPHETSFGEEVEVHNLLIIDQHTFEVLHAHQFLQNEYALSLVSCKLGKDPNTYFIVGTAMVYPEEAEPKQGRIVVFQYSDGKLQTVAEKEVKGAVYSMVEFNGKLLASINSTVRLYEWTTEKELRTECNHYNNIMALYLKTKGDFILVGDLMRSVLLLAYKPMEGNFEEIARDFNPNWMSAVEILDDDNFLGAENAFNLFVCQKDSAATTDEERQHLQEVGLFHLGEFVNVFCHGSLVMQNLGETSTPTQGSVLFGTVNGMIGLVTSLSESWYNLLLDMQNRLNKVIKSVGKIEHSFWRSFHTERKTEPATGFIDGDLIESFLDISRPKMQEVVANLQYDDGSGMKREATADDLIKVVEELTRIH

GSPT1 = GSPT1 (Homo sapiens, UniProt P15170+Q96SW2); assay: Flow cytometry for measuring degradation, HEK293T GFP-POI reporter cells (GSPT1); format: cell-based; design: expressed in transfected cells; host or cells: HEK293T; settings: for GSPT1% degradation at 100 nM / GSPT1% degradation at 1 μM: 24 h, HEK293T GFP reporter; for Dmax: HEK-293T
Sequence of GSPT1 (P15170 whole entry): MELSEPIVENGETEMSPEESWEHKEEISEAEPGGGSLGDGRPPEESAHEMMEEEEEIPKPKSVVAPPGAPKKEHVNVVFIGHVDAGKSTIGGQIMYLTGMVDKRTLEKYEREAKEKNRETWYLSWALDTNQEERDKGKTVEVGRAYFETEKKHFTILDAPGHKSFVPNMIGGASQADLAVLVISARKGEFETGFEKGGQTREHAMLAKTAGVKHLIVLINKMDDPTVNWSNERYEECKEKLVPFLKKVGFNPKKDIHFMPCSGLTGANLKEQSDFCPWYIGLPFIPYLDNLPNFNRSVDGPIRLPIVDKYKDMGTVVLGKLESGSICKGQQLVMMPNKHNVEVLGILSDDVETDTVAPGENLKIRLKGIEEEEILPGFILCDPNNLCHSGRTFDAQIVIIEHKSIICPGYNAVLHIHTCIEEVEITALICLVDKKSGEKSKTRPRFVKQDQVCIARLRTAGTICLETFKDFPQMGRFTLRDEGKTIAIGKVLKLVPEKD
Sequence of GSPT1 (Q96SW2 whole entry): as the sequence (Q96SW2 whole entry) above
Sequence of GSPT1 (Q16531 whole entry partner): as the sequence (Q16531 whole entry partner) above

IKZF2 = biological target: T2, IKZF2 (Homo sapiens, UniProt Q96SW2+Q9UKS7); assay: Flow cytometry for measuring degradation, HEK293T GFP-POI reporter cells (IKZF2); format: cell-based; settings: for IKZF2% degradation at 100 nM / IKZF2% degradation at 1 μM: 24 h, HEK293T GFP reporter; for Dmax: HEK-293T; for Dmax / DC50: Table 3
T2 construct: expressed in transfected cells; host or cells: HEK293T (lentiviral transduction, puromycin selection, FACS sorting)
T2 sequence (Q9UKS7 whole entry): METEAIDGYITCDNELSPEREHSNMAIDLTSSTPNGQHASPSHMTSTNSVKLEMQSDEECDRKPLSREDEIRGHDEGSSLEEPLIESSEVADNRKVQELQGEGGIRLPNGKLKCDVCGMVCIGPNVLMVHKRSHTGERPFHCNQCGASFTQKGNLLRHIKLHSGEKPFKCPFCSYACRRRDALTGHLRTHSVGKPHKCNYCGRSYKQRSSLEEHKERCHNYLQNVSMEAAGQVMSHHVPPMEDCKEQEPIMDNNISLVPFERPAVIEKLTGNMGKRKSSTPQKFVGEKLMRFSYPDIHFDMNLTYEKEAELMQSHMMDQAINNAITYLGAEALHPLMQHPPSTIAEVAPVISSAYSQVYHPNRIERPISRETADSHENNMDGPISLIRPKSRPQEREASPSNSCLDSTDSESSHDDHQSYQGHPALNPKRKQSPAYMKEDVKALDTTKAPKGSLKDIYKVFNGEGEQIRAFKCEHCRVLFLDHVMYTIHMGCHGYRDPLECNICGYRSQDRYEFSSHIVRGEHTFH
T2 sequence (Q96SW2 whole entry): as the sequence (Q96SW2 whole entry) above
T2 sequence (Q16531 whole entry partner): as the sequence (Q16531 whole entry partner) above

IKZF1 = biological target: T3, IKZF1 (Homo sapiens, UniProt Q13422+Q96SW2); assay: Flow cytometry for measuring degradation, HEK293T GFP-POI reporter cells (IKZF1); format: cell-based; settings: for IKZF1% degradation at 100 nM / IKZF1% degradation at 1 μM: 24 h, HEK293T GFP reporter; for Dmax: HEK-293T
T3 construct: expressed in transfected cells; host or cells: HEK293T (lentiviral transduction, puromycin selection, FACS sorting)
T3 sequence (Q13422 whole entry): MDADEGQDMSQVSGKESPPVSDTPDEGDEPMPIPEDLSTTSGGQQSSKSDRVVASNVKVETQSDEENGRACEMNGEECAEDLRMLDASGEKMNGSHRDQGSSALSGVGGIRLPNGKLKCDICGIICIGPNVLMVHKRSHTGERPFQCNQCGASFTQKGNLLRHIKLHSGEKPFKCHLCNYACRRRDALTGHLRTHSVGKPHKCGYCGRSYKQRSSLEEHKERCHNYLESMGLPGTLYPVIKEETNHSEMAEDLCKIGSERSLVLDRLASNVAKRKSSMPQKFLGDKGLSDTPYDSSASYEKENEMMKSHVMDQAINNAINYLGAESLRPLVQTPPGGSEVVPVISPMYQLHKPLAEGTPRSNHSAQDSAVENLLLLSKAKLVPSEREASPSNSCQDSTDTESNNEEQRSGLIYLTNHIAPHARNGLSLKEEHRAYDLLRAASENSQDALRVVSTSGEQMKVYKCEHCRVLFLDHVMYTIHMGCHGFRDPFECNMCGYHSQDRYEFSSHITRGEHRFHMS
T3 sequence (Q96SW2 whole entry): as the sequence (Q96SW2 whole entry) above
T3 sequence (Q16531 whole entry partner): as the sequence (Q16531 whole entry partner) above

SMILES	degradation activity for CK1α and/or IKZF2, while sparing IKZF1 and/or GSPT1 (in words) (CK1α and/or IKZF2)	CK1α % degradation at 100 nM (CK1α)	CK1α % degradation at 1 μM (CK1α)	GSPT1% degradation at 100 nM (GSPT1)	GSPT1% degradation at 1 μM (GSPT1)	IKZF2% degradation at 100 nM (IKZF2)	IKZF2% degradation at 1 μM (IKZF2)	IKZF1% degradation at 100 nM (IKZF1)	IKZF1% degradation at 1 μM (IKZF1)	other results
O=C1CCC(N2Cc3cc(CNC(=O)C(F)(F)c4ccc(Cl)cc4)ccc3C2=O)C(=O)N1 (stereo not drawn) [CC-90009, reference compound]	–	–	–	–	–	–	–	–	–	EC50 [1]: 269 nM; EC50 (DLBCL cell line OCI-LY3): 36 nM; EC50 [2]: 7 nM
COc1ccc2cc(C(=O)Nc3ccc4c(c3)CN(C3CCC(=O)NC3=O)C4=O)ccc2c1 (stereo not drawn) [DEG-35, N-(2-(2,6-dioxopiperidin-3-yl)-1-oxoisoindolin-5-yl)-6-methoxy-2-naphthamide]	–	–	–	–	–	–	–	–	–	solubility (in words) [3]: limited solubility; IC50 (MOLM-13 cells): 6 nM; EC50 (DLBCL cell line OCI-LY3; Homo sapiens, 120 h): 8 nM
O=C1CCC(N2Cc3cc(NC(=O)C4=Cc5ccccc5OC4)ccc3C2=O)C(=O)N1 (stereo not drawn) [DEG-52, N-(2-(2,6-dioxopiperidin-3-yl)-1-oxoisoindolin-5-yl)-2H-chromene-3-carboxamide]	good degradation activity	68.4 ± 0.2%	72.8 ± 0.1%	10.5 ± 1.7%	12.2 ± 1.9%	83.9 ± 0.4%	93.8 ± 0.1%	15.2 ± 0.2%	29.2 ± 0.5%	–
O=C1CCC(N2Cc3cc(NC(=O)c4cccc(Oc5ccccc5)c4)ccc3C2=O)C(=O)N1 (stereo not drawn) [DEG-55, N-(2-(2,6-dioxopiperidin-3-yl)-1-oxoisindolin-5-yl)-3-phenoxybenzamide]	good degradation activity	57.6 ± 1.7%	67.4 ± 1.4%	8.8 ± 0.8%	14 ± 1.8%	73.9 ± 0.4%	91.1 ± 0.1%	62.1 ± 0.2%	86.8 ± 0.4%	–
O=C(/C=C/c1ccccc1)Nc1ccc2c(c1)CN(C1CCC(=O)NC1=O)C2=O (stereo not drawn) [DEG-56, N-(2-(2,6-dioxopiperidin-3-yl)-1-oxoisoindolin-5-yl)cinnamamide]	good degradation activity	60.2 ± 2.3%	67 ± 1.1%	7.6 ± 1.5%	11.1 ± 1.3%	70.8 ± 0.3%	89.6 ± 0.1%	13.1 ± 0.8%	29.4 ± 0.3%	–
O=C1CCC(N2Cc3cc(NC(=O)c4cc5ccccc5o4)ccc3C2=O)C(=O)N1 (stereo not drawn) [DEG-59, N-(2-(2,6-dioxopiperidin-3-yl)-1-oxoisoindolin-5-yl)benzofuran-2-carboxamide]	good degradation activity	61.7 ± 2.4%	63.3 ± 3.9%	2 ± 3.6%	−1 ± 3.4%	79.7 ± 0.1%	92 ± 0.1%	13.4 ± 0.6%	26.5 ± 1.2%	–
O=C1CCC(N2Cc3cc(NC(=O)c4ccc(Oc5ccccc5)cc4)ccc3C2=O)C(=O)N1 (stereo not drawn) [DEG-61, N-(2-(2,6-dioxopiperidin-3-yl)-1-oxoisoindolin-5-yl)-4-phenoxybenzamide]	good degradation activity	60.9 ± 0.7%	65.8 ± 1.2%	10.2 ± 2.8%	16.9 ± 2.3%	78.4 ± 0.8%	91.4 ± 0.1%	5.2 ± 1%	9.6 ± 0.5%	–
O=C1CCC(N2Cc3cc(NC(=O)Cc4cccc5ccccc45)ccc3C2=O)C(=O)N1 (stereo not drawn) [DEG-67, N-(2-(2,6-dioxopiperidin-3-yl)-1-oxoisoindolin-5-yl)-2-(naphthalen-1-yl)acetamide]	good degradation activity	64.4 ± 0.5%	62.8 ± 0.5%	25.3 ± 0.5%	30.9 ± 1%	92.2 ± 0.1%	94.6 ± 0%	97.2 ± 0.1%	98.1 ± 0.1%	–
CSc1ccc2cc(C(=O)Nc3ccc4c(c3)CN(C3CCC(=O)NC3=O)C4=O)ccc2c1 (stereo not drawn) [DEG-95, N-(2-(2,6-dioxopiperidin-3-yl)-1-oxoisoindolin-5-yl)-6-(methylthio)-2-naphthamide]	–	76.5%	80.1%	16.3%	24.8%	86.7%	94.1%	7.7%	9.1%	solubility [3]: > 100 mM; Dmax (CK1α): 78.9%; DC50 (CK1α): 2.8 nM; Dmax (GSPT1; Table 3): 33.5%; DC50 (GSPT1; Table 3): 1190 nM; Dmax (IKZF2): 95.4%; DC50 (IKZF2): 10.4 nM; Dmax (IKZF1; Table 3): 17.2%
CC(=O)N1CCC[C@H]1C(=O)Nc1ccc2c(c1)CN(C1CCC(=O)NC1=O)C2=O (stereo partly drawn) [DEG-96, (2S)-1-acetyl-N-(2-(2,6-dioxopiperidin-3-yl)-1-oxoisoindolin-5-yl)pyrrolidine-2-carboxamide]	–	9.2%	26.3%	8.6%	10.1%	21.4%	57.0%	3.6%	5.0%	solubility [3]: > 100 mM; Dmax (CK1α): 40.3%; DC50 (CK1α): 503 nM; Dmax (GSPT1; Table 3): 14.2%; Dmax (IKZF2): 79.5%; DC50 (IKZF2): 340 nM; Dmax (IKZF1; Table 3): 8.3%
CN1C(=O)CCc2cc(C(=O)Nc3ccc4c(c3)CN(C3CCC(=O)NC3=O)C4=O)ccc21 (stereo not drawn) [DEG-97, N-(2-(2,6-dioxopiperidin-3-yl)-1-oxoisoindolin-5-yl)-1-methyl-2-oxo-1,2,3,4-tetrahydroquinoline-6-carboxamide]	–	60.1%	74.1%	1.6%	−3.4%	52.6%	87.1%	2.4%	4.1%	solubility [3]: > 100 mM; Dmax (CK1α): 78%; DC50 (CK1α): 32 nM; Dmax (GSPT1; Table 3): 5.6%; Dmax (IKZF2): 95.9%; DC50 (IKZF2): 83.1 nM; Dmax (IKZF1; Table 3): 13.1%
C[C@H](NC(=O)c1ccccc1)C(=O)Nc1ccc2c(c1)CN(C1CCC(=O)NC1=O)C2=O (stereo partly drawn) [DEG-98, N-((2S)-1-((2-(2,6-dioxopiperidin-3-yl)-1-oxoisoindolin-5-yl)amino)-1-oxopropan-2-yl)benzamide]	–	18.2%	41.2%	5.5%	6.2%	35.8%	68.1%	50.9%	79.7%	solubility [3]: > 100 mM; Dmax (CK1α): 54.1%; DC50 (CK1α): 175 nM; Dmax (GSPT1; Table 3): 0%; Dmax (IKZF2): 80.5%; DC50 (IKZF2): 143 nM; Dmax (IKZF1; Table 3): 88%; DC50 (IKZF1; Table 3): 72 nM
COc1ccc2cc(C(=O)Nc3ccc4c(c3)CN(C3CCC(=O)N(C)C3=O)C4=O)ccc2c1 (stereo not drawn) [Me-DEG-35, 6-methoxy-N-(2-(1-methyl-2,6-dioxopiperidin-3-yl)-1-oxoisoindolin-5-yl)-2-naphthamide]	–	–	–	–	–	–	–	–	–	sensitivity of A2780 cells (in words) [1]: limited activity; sensitivity of OCI-LY3 cells (in words) (DLBCL cell line OCI-LY3): limited activity
COc1cc(C(=O)O)ccc1NC(=O)[C@@H]1N[C@@H](CC(C)(C)C)[C@](C#N)(c2ccc(Cl)cc2F)[C@H]1c1cccc(Cl)c1F [idasanutlin, reference compound]	–	–	–	–	–	–	–	–	–	sensitivity of A2780 cells (in words) [1]: no demonstrable sensitivity; sensitivity of OCI-LY3 cells (in words) (DLBCL cell line OCI-LY3): very limited sensitivity
